# Legend:
# human THP-1 cells = experiment: eGFP mRNA transfection of human THP-1 macrophages, flow cytometry; assay type: cell-based; conditions: THP-1, FIG. 3
# Method: THP-1 cells (a human leukaemia monocytic cell line) were sub-cultured in RPMI (with glutamax)+10% heat inactivated FBS (complete media) at 3E+5 cells/ml and passaged every 3-4 days. For macrophage polarisation 7.5E+6 cells were seeded in T75 flasks in a total of 20 ml complete media containing 5 ng/ml PMA (1:1000 of 5 ug/ml stock). The cells were transferred to the 37° C. incubator for overnight. After 24 hrs, THP-1 cells were washed with complete medium and a fresh flask complete medium (not containing PMA) was overlaid on the cells. After a further 72 hrs, the complete medium was exchanged for fresh complete media containing 20 ng/ml rhlL-4 (1:500 of 10 μg/ml stock). 24 hrs later the cells were harvested by firstly washing the cells with PBS followed by a 5 minute treatment at 37° C. with 5 mM EDTA (diluted in PBS). Cells were spun down at 300 g for 5 minutes and resuspended in a complete medium containing 20 ng/ml rhlL-4 at 2.4E+5 cells/mi. 500 ul of cells were seeded into each well on a 24-well plate and left overnight in the 37° C. incubator.
# The medium overlaying the polarised THP-1 cells was aspirated and exchanged with 480 ul/well complete media containing 20 ng/ml rhlL-4. […]
# Data were collected using a BD LSRFortessa I analyser running […] software (Beckton Dickinson). All collected data were analysed using FlowJo 10.0 software. […]
# [1] = Zeta potential of nanoparticles (electrophoretic light scattering); assay type: physicochemical
# Description: Zeta potential is a measurement of the magnitude of the electrostatic or charge repulsion/attraction between particles. This can be determined by analysing particle mobility and charge (Zeta potential) using the Electrophoretic Light Scattering (ELS) technique.
# Zeta potential is a measurement of the magnitude of the electrostatic or charge repulsion/attraction between particles. This can be determined by analysing particle mobility and charge (Zeta potential) using the Electrophoretic Light Scattering (ELS) technique. […] Parameters: reference material: polystyrene latex, dispersant: water, 25° C. The measurements of the zeta potential were carried out using the Zetasizer Advance Series—Pro (Malvern Panalytical Ltd, Malvern, UK) according to the manufacturer's instructions.
substance,measurement,setting,value
"(RHL)4(KRHL)2KGSC-NH2 [GSCG1,2-RHL]",increase of transfection efficiency at NP=0.6:1 compared to NP=5:1,human THP-1 cells,approximately 10%
same,zeta potential,"[1]; GSCG1,2-RHL N:P=0.6:1, DOTMA:DOPE, coated with GSGGSGGSCG1-EEEE, with/without CpG (mRNA:CpG w/w 9:1)",+48 mV
same,Zeta potential measurement,"[1]; GSCG1,2-RHL and DOTMA:DOPE nanoparticles, diluted 3× in 25 mM HEPES, then 60× in water",+33.5 mV
same,zeta potential,"[1]; mRNA, N:P 0.6:1, DOTMA:DOPE w/w 10:1, with or without 3 equivalents G1-EEEE with mannose coating",28.23 mV

# — patent US20260014278A1, “HYBRID PEPTIDE DENDRIMER SYSTEMS AND EXTRAHEPATIC DELIVERY” (NUNTIUS THERAPEUTICS LIMITED, priority 2022, published 2026)
